Data reported in PMC10687288, “Chalcones: The flavonoid derivatives synthesis, characterization, their antioxidant and in vitro/in vivo antidiabetic potentials” (Heliyon, 2023).

Target: α-glucosidase
Assay: p-nitrophenyl-α-D-glucopyranoside hydrolysis assay, absorbance […] nm
Assay type: biochemical

Glucosidase IC50 [µg/mL] | SMILES
63.04 ± 1.17 | O=C(/C=C/c1ccc(Cl)cc1)c1ccc(Br)cc1 [JA3, (E)-1-(4-bromophenyl)-3-(4-chlorophenyl) prop-2-ene-1one]
97.24 ± 1.48 | O=C(/C=C/c1cccc(Cl)c1)c1ccc(Br)cc1 [JA2, (E)-1-(4-bromophenyl)-3-(3-chlorophenyl) prop-2-ene-1one]
85.11 ± 1.29 | O=C(/C=C/c1ccccc1Cl)c1ccc(Br)cc1 [JA1, (E)-1-(4-bromophenyl)-3-(2-chlorophenyl) prop-2-ene-1one]
